The results in this text go back to ChEMBL document CHEMBL2413067, “Investigation into the functional impact of the vancomycin C-ring aryl chloride” (2013).

Converted amounts (≈) assume the structure as drawn.

The nature of test [1]: Binding affinity to N,N'-Ac2-L-Lys-D-Ala-Gly model of cell wall ligand by UV-difference assay.
Test [2] is described as follows: Binding affinity to N,N'-Ac2-L-Lys-D-Ala-D-Phe model of cell wall ligand by UV-difference assay.
Test [3] can be described thus: Binding affinity to N,N'-Ac2-L-Lys-D-Ala-D-Ala model of cell wall ligand by UV-difference assay.
The nature of test [4]: Binding affinity to N,N'-Ac2-L-Lys-D-Ala-D-Ser model of cell wall ligand by UV-difference assay.
Test [5] concerns Staphylococcus aureus. The experiment in a line: Antimicrobial activity against vancomycin-sensitive Staphylococcus aureus ATCC 25923 after 24 hrs. As to conditions: ATCC 25923, 24 h. The format is functional.

A word on the MIC: it is the lowest concentration that inhibits growth of the organism.

On to `CN[C@H](CC(C)C)C(=O)N[C@H]1C(=O)N[C@@H](CC(N)=O)C(=O)N[C@H]2C(=O)N[C@H]3C(=O)N[C@H](C(=O)N[C@H](C(=O)O)c4cc(O)cc(O)c4-c4cc3ccc4O)[C@H](O)c3ccc(cc3)Oc3cc2cc(c3O)Oc2ccc(cc2Cl)[C@H]1O`, for which the Ka in test [1] amounted to 0.49 ×10⁴ /M; in test [2], 9 ×10² /M; in test [3], 0.38 ×10⁵ /M; in test [4], 4 ×10³ /M. Moreover, the MIC in test [5] was found to be 10 µg/mL (≈ 9.01 µM).
As for `CN[C@H](CC(C)C)C(=O)N[C@H]1C(=O)N[C@@H](CC(N)=O)C(=O)N[C@H]2C(=O)N[C@H]3C(=O)N[C@H](C(=O)N[C@H](C(=O)O)c4cc(O)cc(O)c4-c4cc3ccc4O)[C@H](O)c3ccc(c(Cl)c3)Oc3cc2cc(c3O[C@@H]2O[C@H](CO)[C@@H](O)[C@H](O)[C@H]2O[C@H]2C[C@](C)(N)[C@H](O)[C@H](C)O2)Oc2ccc(cc2Cl)[C@H]1O` [VANCOMYCIN], the Ka in test [3] came out at 1.8 ×10⁵ /M. The lowest concentration to inhibit growth in test [5] (MIC) was 1.25 µg/mL (≈ 0.863 µM).
In the same order, the values of `CN[C@H](CC(C)C)C(=O)N[C@H]1C(=O)N[C@@H](CC(N)=O)C(=O)N[C@H]2C(=O)N[C@H]3C(=O)N[C@H](C(=O)N[C@H](C(=O)O)c4cc(O)cc(O)c4-c4cc3ccc4O)[C@H](O)c3ccc(cc3)Oc3cc2cc(c3O)Oc2ccc(cc2)[C@H]1O` are 0.18 ×10⁵ /M and 20 µg/mL (≈ 18.6 µM).
For `CN[C@H](CC(C)C)C(=O)N[C@H]1C(=O)N[C@@H](CC(N)=O)C(=O)N[C@H]2C(=O)N[C@H]3C(=O)N[C@H](C(=O)N[C@H](C(=O)O)c4cc(O)cc(O)c4-c4cc3ccc4O)[C@H](O)c3ccc(c(Cl)c3)Oc3cc2cc(c3O)Oc2ccc(cc2Cl)[C@H]1O` [VANCOMYCIN AGLYCON], the Ka in test [1] is 1 ×10⁴ /M; in test [2] it was 9.1 ×10² /M; in test [3] it was 1.4 ×10⁵ /M; in test [4], 3.3 ×10³ /M. This compound returned an MIC in test [5] of 1.25 µg/mL (≈ 1.09 µM).
